Assay results as given in patent publication US10806707B2, “Cannabis oil compositions and methods for preparation thereof” (priority 2015, dated 2020).
pEC50: −log10 of the molar value. Read-outs that look alike come from different tables or passages of the source.

How the values were obtained:
Format in all cases: cell-based
[1] = target: T1, CNR1 (also known as CB1) (Homo sapiens, UniProt P21554); conditions: read-out: CNR1 cAMP EC50
T1 construct: β-galactosidase enzyme fragment (implied by the complementation read-out)

[2] = target: T1, CNR1 (also known as CB1); conditions: read-out: CNR1 β-Arrestin EC50
[3] = target: T2, CNR2 (also known as CB2) (Homo sapiens, UniProt P34972); assay: cAMP competitive inhibition immunoassay (HitHunter), CNR2 activation; conditions: CNR2, cAMP assay
T2 construct: β-galactosidase enzyme fragment (implied by the complementation read-out)

[4] = target: T2, CNR2 (also known as CB2); assay: β-arrestin GPCR assay (PathHunter), CNR2 activation; conditions: CNR2, β-arrestin recruitment

T2 sequence (P34972 whole entry, species assumed, the tested form may be a part): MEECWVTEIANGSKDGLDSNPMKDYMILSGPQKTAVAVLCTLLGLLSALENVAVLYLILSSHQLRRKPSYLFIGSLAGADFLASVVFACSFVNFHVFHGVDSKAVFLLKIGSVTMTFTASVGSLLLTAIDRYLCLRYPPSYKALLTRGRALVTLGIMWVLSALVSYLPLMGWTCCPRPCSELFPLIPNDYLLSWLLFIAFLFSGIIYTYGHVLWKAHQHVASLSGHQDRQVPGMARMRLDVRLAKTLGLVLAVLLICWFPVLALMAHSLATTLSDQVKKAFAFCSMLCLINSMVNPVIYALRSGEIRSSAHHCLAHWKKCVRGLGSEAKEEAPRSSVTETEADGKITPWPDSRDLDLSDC
T1 sequence (P21554 whole entry, species assumed, the tested form may be a part): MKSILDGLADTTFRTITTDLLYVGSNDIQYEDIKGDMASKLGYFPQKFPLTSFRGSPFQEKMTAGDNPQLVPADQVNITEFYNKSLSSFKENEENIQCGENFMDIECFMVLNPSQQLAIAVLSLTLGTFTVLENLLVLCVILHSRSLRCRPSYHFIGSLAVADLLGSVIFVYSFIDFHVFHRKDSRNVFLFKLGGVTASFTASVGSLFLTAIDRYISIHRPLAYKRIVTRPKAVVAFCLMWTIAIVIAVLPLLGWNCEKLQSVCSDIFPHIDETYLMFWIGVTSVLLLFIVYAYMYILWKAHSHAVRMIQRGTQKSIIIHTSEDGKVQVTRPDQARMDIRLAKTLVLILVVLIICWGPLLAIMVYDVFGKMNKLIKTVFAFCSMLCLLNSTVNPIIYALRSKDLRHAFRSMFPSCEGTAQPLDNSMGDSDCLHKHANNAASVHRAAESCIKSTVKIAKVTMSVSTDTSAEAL

CCCCCc1cc(O)c2c(c1)OC(C)(C)[C@@H]1CCC(CO)=C[C@@H]21 [Example 11-OH-THC]
pEC50 [1]: 7.97
pEC50 [2]: < 4.78
pEC50 [3]: 6.24
pEC50 [4]: < 4.78
